Biological target: T1, recombinant IL-8 Rb, or Type II, receptor (permissive receptor) (Homo sapiens, UniProt P25025)
T1 construct: expressed in transfected cells; host or cells: Chinese hamster ovary cells (membrane preparation)
T1 sequence (P25025 1-360): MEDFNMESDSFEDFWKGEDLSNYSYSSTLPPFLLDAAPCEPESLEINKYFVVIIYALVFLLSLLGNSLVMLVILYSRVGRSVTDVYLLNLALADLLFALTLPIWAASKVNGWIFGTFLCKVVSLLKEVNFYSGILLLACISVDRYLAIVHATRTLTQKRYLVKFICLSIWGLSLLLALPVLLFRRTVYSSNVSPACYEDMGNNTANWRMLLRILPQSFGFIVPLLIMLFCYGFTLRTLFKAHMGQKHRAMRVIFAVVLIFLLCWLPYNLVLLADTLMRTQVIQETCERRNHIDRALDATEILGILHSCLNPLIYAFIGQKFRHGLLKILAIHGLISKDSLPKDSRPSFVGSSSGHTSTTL
Assay: Receptor binding assay, 125I IL-8, permissive (Type II) receptor
Conditions: concentration at which active
Excerpt: [^125I] IL-8 (human recombinant) was obtained from Amersham Corp., Arlington Heights, Ill., with specific activity 2000 Ci/mmol. Gro-a was obtained from NEN-New England Nuclear. All other chemicals were of analytical grade. High levels of recombinant human IL-8 type a and b receptors were individually expressed in Chinese hamster ovary cells as described previously (Holmes, et al., Science, 1991, 253, 1278). The Chinese hamster ovary membranes were homogenized according to a previously described protocol (Haour, et al., J Biol Chem., 249 pp 2195-2205 (1974)). Except that the homogenization buffer was changed to 10 mM Tris-HCL, 1 mM MgS04, 0.5 mM EDTA (ethylene-diaminetetra-acetic acid), 1 m MPMSF (a-toluenesulphonyl fluoride), 0.5 mg/L Leupeptin, pH 7.5. Membrane protein concentration was determined using Pierce Co. micro-assay kit using bovine serum albumin as a standard. All assays were performed in a 96-well micro plate format. Each reaction mixture contained ^125I IL-8 (0.25 nM) or ^125I Gro-a and 0.5 μg/mL of IL-8Ra or 1.0 μg/mL of IL-8Rb membranes in 20 mM Bis-Trispropane and 0.4 mM Tris HCI buffers, pH 8.0, containing 1.2 mM MgSO4, 0.1 mM EDTA, 25 mM NaCl and 0.03% CHAPS. […] The filter was then dried and counted on the Betaplate liquid scintillation counter. […]

found to be active at (IL-8 receptor inhibition)	Compound
about 75 μg/mL	Cc1cc(Cl)ccc1NC(=O)Nc1ccccc1C(=O)O [1-(2-Carboxyphenyl)-3-(4-chloro-2-methylphenyl)urea]

Tested on: not given
Assay: not given
Conditions: not given

melting point [°C]	Compound
204.1 to 205.3	O=C(Nc1ccc([N+](=O)[O-])cc1O)Nc1ccccc1Sc1ccccc1[N+](=O)[O-]
188.4 to 188.8	COC(=O)c1ccc(NC(=O)Nc2ccccc2)c(O)c1 [Example 1, N-[2-Hydroxy-4-(methoxycarbonyl)phenyl]-N′-phenyl urea]
106.8 to 107.1	NC(=O)c1ccc(NC(=O)Nc2ccccc2)c(O)c1 [Example 3, 3-hydroxy-4-{[(phenylamino)carbonyl]amino}benzamide]
195.5 to 195.7	O=C(Nc1ccccc1)Nc1ccc(F)cc1O [Example 4, N-(2-hydroxy-4-fluorophenyl)-N′-phenyl urea]
194.5	O=C(Nc1ccccc1)Nc1ccccc1S [Example 5, 2-{[(phenylamino)carbonyl]amino}thiophenol]
172.6 to 173	COc1ccsc1NC(=O)Nc1cc([N+](=O)[O-])ccc1O [Example 11, N-(2-hydroxy-5-nitrophenyl)-N′-(3-methoxy-2-thienyl)urea]
204.3 to 205.2	O=C(Nc1cccc(C(F)(F)F)c1O)Nc1cccc(Cl)c1Cl [Example 203, N-(2-hydroxy-3-trifluoromethylphenyl)-N′-(2,3-dichlorophenyl)urea]
136.7 to 137.3	O=C(Nc1ccccc1-c1ccccc1)Nc1cccc(C(F)(F)F)c1O [Example 204, N-(2-hydroxy-3-trifluoromethylphenyl)-N′-(2-phenylphenyl)urea]
179.3	O=C(Nc1ccccc1Cl)Nc1cccc(C(F)(F)F)c1O [Example 213, N-(2-hydroxy-3-trifluoromethylphenyl)-N′-(2-chlorophenyl)urea]
168.2 to 168.8	O=C(NCCO)Nc1ccc([N+](=O)[O-])cc1O [Example 214, N-(2-Hydroxyethyl)-N′-(2-hydroxy-4-nitrophenyl)urea]
149 to 149.6	O=C(Nc1ccc([N+](=O)[O-])cc1O)Nc1ccccc1NS(=O)(=O)c1cccs1 [Example 216, N-[2-(2-thienylsulfonylamino)phenyl]-N′-(2-hydroxy-4-nitrophenyl)urea]
185.4 to 186.2	O=C(Nc1ccc([N+](=O)[O-])cc1O)Nc1ccccc1OCc1cccnc1 [Example 221, N-[2-(3-Pyridylmethoxy)phenyl]-N′-(2-hydroxy-4-nitrophenyl)urea]
189.3 to 189.7	O=C(Nc1ccc([N+](=O)[O-])cc1O)Nc1ccccc1OCc1ccncc1 [Example 222, N-[2-(4-Pyridylmethoxy)phenyl]-N′-(2-hydroxy-4-nitrophenyl)urea]
199.3 to 199.6	COC(=O)Nc1ccccc1NC(=O)Nc1ccc([N+](=O)[O-])cc1O [Example 223, N-[2-(Methoxycarbonylamino)phenyl]-N′-(2-hydroxy-4nitrophenyl)urea]
108.8 to 109.4	N#Cc1ccc(NC(=O)Nc2ccccc2NCc2ccccc2)c(O)c1 [Example 232, N-(2-Hydroxy-4-cyanophenyl)-N′-(2-benzylaminophenyl)urea]
193.5 to 194	NC(=O)N(c1ccc([N+](=O)[O-])cc1O)c1ccccc1OCc1ccccn1 [Example 233, N′-[2-(2-Pyridylmethoxy)phenyl]-N′-(2-Hydroxy-4-nitrophenyl)urea]
188.7 to 189.3	O=C(Nc1ccc([N+](=O)[O-])cc1O)Nc1ccccc1NC(=O)c1ccccc1 [Example 236, N-[2-(Benzoylamino)phenyl]-N′-(2-hydroxy-4-nitrophenyl)urea]
